The text below walks through data of patent US8791148B2, “Substituted benzimidazolone derivatives, medicaments comprising them and their use” (AbbVie Deutschland GmbH & Co. KG, priority 2006, dated 2014).

In the test the target is T1, human vasopressin V1b receptor (Homo sapiens, UniProt P47901).
T1 construct: expressed in transfected cells; host or cells: CHO-K1 (cell line hV1b-3H2_CHO), membrane preparation
T1 sequence (P47901 1-424): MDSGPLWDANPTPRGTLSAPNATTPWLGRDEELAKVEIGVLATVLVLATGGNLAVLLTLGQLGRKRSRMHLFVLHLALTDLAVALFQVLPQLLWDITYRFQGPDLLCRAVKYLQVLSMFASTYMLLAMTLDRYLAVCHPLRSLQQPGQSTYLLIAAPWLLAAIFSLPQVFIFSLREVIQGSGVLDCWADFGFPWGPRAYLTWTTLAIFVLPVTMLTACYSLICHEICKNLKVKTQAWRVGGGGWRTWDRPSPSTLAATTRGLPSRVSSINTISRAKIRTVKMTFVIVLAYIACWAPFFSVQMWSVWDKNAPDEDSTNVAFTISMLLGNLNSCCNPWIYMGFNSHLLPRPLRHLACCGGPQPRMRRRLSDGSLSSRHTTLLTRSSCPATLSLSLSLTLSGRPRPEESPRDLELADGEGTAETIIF
In words: Vasopressin V1b receptor binding assay. To be noted: membranes from CHO-K1 cells with stably expressed human V1b receptors; displacement of 1.5 nM 3H-AVP; read-out: V1b receptor affinity (affinity constant Ki). The method, then: Vasopressin V1b Receptor Binding Assay:
The test substances were dissolved in a concentration of 10^−2 M in DMSO and further diluted to 5×10^−4 M to 5×10^−9 M in DMSO. This series of DMSO predilutions was diluted 1:10 with assay buffer. The substance concentration was again diluted 1:5 in the assay mixture (2% DMSO in the mixture).
The membrane pellet was again homogenized and centrifuged as described and then taken up in 50 mM Tris-HCl, pH 7.4, homogenized and stored in aliquots frozen in liquid nitrogen at −190° C.
The incubation buffer was: 50 mM Tris, 10 mM MgCl2, 0.1% BSA, pH 7.4. […] The nonspecific binding was determined with 1 uM AVP (Bachem #H1780). All determinations were carried out as triplicate determinations. After incubation (60 minutes at room temperature), the free radioligand was removed by vacuum filtration (Skatron cell harvester 7000) through Wathman GF/B glass fiber filter mats, and the filters were transferred into scintillation vials. The liquid scintillation measurement took place in a Tricarb model 2000 or 2200CA instrument (Packard). Conversion of the measured cpm into dpm was carried out with the aid of a standard quench series.
The binding parameters were calculated by nonlinear regression in SAS.
The above assay was used to measure the affinities of the compounds of the invention for the human vasopressin V1b receptor and to determine the affinity constants (Ki).

As to `COc1ccc(C(C(=O)N2CCN(c3ccncc3)CC2)n2c(=O)n(S(=O)(=O)c3ccc(OC)cc3OC)c3ccc(Cl)cc32)cc1` (stereo not shown) [Example 1, 5-Chloro-1-(2,4-dimethoxybenzenesulfonyl)-3-[1-(4-methoxyphenyl)-2-oxo-2-(4-pyridin-4-ylpiperazin-1-yl)ethyl]-1,3-dihydrobenzimidazol-2-one], the Ki fell in the range of 100 to 500 nM.
To `O=C(C(c1ccccc1)n1c(=O)n(S(=O)(=O)c2ccco2)c2ccc(Cl)cc21)N1CCN(c2ccncc2)CC1` (stereo not shown) [Example 2, 5-Chloro-1-(furan-2-sulfonyl)-3-[2-oxo-1-phenyl-2-(4-pyridin-4-ylpiperazin-1-yl)ethyl]-1,3-dihydrobenzimidazol-2-one] belongs 100 to 500 nM; to `CN1CCN(C2CCN(C(=O)C(c3ccccc3)n3c(=O)n(S(=O)(=O)c4cccc5cccnc45)c4ccc(Cl)cc43)CC2)CC1` (stereo not shown) [Example 3, 5-Chloro-3-{2-[4-(4-methylpiperazin-1-yl)piperidin-1-yl]-2-oxo-1-phenyl-ethyl}-1-(quinoline-8-sulfonyl)-1,3-dihydrobenzimidazol-2-one], 500 to 10000 nM; to `COc1ccc(S(=O)(=O)n2c(=O)n(C(C(=O)N3CCN(c4ccncc4)CC3)c3ccccc3)c3cc(I)ccc32)cc1` (stereo not shown) [Example 4, 5-Iodo-1-(4-methoxybenzenesulfonyl)-3-[2-oxo-1-phenyl-2-(4-pyridin-4-ylpiperazin-1-yl)ethyl]-1,3-dihydrobenzimidazol-2-one], less than 100 nM.
To `O=C(C(c1ccccc1)n1c(=O)n(S(=O)(=O)c2ccsc2)c2ccc(Cl)cc21)N1CCN(c2ccncc2)CC1` (stereo not shown) [Example 5, 5-Chloro-3-[2-oxo-1-phenyl-2-(4-pyridin-4-ylpiperazin-1-yl)ethyl]-1-(thiophene-3-sulfonyl)-1,3-dihydrobenzimidazol-2-one] belongs 100 to 500 nM.
With `COc1ccc(S(=O)(=O)n2c(=O)n(C(C(=O)N3CCN(c4ccncc4)CC3)c3ccccc3OC)c3cc(Cl)ccc32)cc1` (stereo not shown) [Example 6, 5-Chloro-1-(4-methoxybenzenesulfonyl)-3-[1-(2-methoxyphenyl)-2-oxo-2-(4-pyridin-4-ylpiperazin-1-yl)ethyl]-1,3-dihydrobenzimidazol-2-one], the Ki is 100 to 500 nM.
The result for `O=C(C(c1ccccc1)n1c(=O)n(S(=O)(=O)c2ccc(Cl)s2)c2ccc(Cl)cc21)N1CCN(c2ccncc2)CC1` (stereo not shown) [Example 7, 5-Chloro-1-(5-chlorothiophene-2-sulfonyl)-3-[2-oxo-1-phenyl-2-(4-pyridin-4-ylpiperazin-1-yl)ethyl]-1,3-dihydrobenzimidazol-2-one] reads 500 to 10000 nM; that for `COc1ccc(S(=O)(=O)n2c(=O)n(C(C(=O)N3CCN(C4CCN(C)CC4)CC3)c3ccccc3OC)c3cc(Cl)ccc32)c(OC)c1` (stereo not shown) [Example 8, 5-Chloro-1-(2,4-dimethoxybenzenesulfonyl)-3-{1-(2-methoxyphenyl)-2-[4-(1-methylpiperidin-4-yl)piperazin-1-yl]-2-oxoethyl}-1,3-dihydrobenzimidazol-2-one], 500 to 10000 nM; that for `COc1ccc(S(=O)(=O)n2c(=O)n(C(C(=O)N3CCN(C4CCN(C)CC4)CC3)c3ccccc3OC)c3cc(Cl)ccc32)cc1` (stereo not shown) [Example 9, 5-Chloro-1-(4-methoxybenzenesulfonyl)-3-{1-(2-methoxyphenyl)-2-[4-(1-methylpiperidin-4-yl)piperazin-1-yl]-2-oxoethyl}-1,3-dihydrobenzimidazol-2-one], 500 to 10000 nM.
Regarding `COc1ccc(S(=O)(=O)n2c(=O)n(C(C(=O)N3CCN(C4CCN(C)CC4)CC3)c3ccccc3)c3cc(C#N)ccc32)c(OC)c1` (stereo not shown) [Example 10, 1-(2,4-Dimethoxybenzenesulfonyl)-3-{2-[4-(1-methylpiperidin-4-yl)piperazin-1-yl]-2-oxo-1-phenylethyl}-2-oxo-2,3-dihydro-1H-benzimidazole-5-carbonitrile], the Ki was 500 to 10000 nM.
The result for `COc1ccc(S(=O)(=O)n2c(=O)n(C(C(=O)N3CCN(C4CCN(C)CC4)CC3)c3ccccc3)c3cc(C#N)ccc32)cc1` (stereo not shown) [Example 11, 1-(4-Methoxybenzenesulfonyl)-3-{2-[4-(1-methylpiperidin-4-yl)piperazin-1-yl]-2-oxo-1-phenylethyl}-2-oxo-2,3-dihydro-1H-benzimidazole-5-carbonitrile] reads 500 to 10000 nM; that for `COc1ccc(S(=O)(=O)n2c(=O)n(C(C(=O)N3CCN(c4ccncc4)CC3)c3ccccc3OC)c3cc(Cl)ccc32)c(OC)c1` (stereo not shown) [Example 12, 5-Chloro-1-(2,4-dimethoxybenzenesulfonyl)-3-[1-(2-methoxyphenyl)-2-oxo-2-(4-pyridin-4-ylpiperazin-1-yl)ethyl]-1,3-dihydrobenzimidazol-2-one], 500 to 10000 nM.
To `COc1ccccc1C(C(=O)N1CCN(c2ccncc2)CC1)n1c(=O)n(S(=O)(=O)c2cccc3cccnc23)c2ccc(Cl)cc21` (stereo not shown) [Example 13, 5-Chloro-3-[1-(2-methoxyphenyl)-2-oxo-2-(4-pyridin-4-ylpiperazin-1-yl)-ethyl]-1-(quinoline-8-sulfonyl)-1,3-dihydrobenzimidazol-2-one] belongs 500 to 10000 nM; to `COc1ccccc1C(C(=O)N1CCN(c2ccncc2)CC1)n1c(=O)n(S(=O)(=O)c2ccc(C#N)cc2)c2ccc(Cl)cc21` (stereo not shown) [Example 14, 4-{5-Chloro-3-[1-(2-methoxyphenyl)-2-oxo-2-(4-pyridin-4-ylpiperazin-1-yl)ethyl]-2-oxo-2,3-dihydrobenzimidazole-1-sulfonyl}benzonitrile], 500 to 10000 nM.
Take `COc1ccccc1C(C(=O)N1CCN(C2CCN(C)CC2)CC1)n1c(=O)n(S(=O)(=O)c2cccc3cccnc23)c2ccc(Cl)cc21` (stereo not shown) [Example 15, 5-Chloro-3-{1-(2-methoxyphenyl)-2-[4-(1-methylpiperidin-4-yl)piperazin-1-yl]-2-oxoethyl}-1-(quinoline-8-sulfonyl)-1,3-dihydrobenzimidazol-2-one]: the Ki fell in the range of 500 to 10000 nM.
`COc1ccccc1C(C(=O)N1CCN(C2CCN(C)CC2)CC1)n1c(=O)n(S(=O)(=O)c2ccc(C#N)cc2)c2ccc(Cl)cc21` (stereo not shown) [Example 16, 4-(5-Chloro-3-{1-(2-methoxyphenyl)-2-[4-(1-methylpiperidin-4-yl)piperazin-1-yl]-2-oxoethyl}-2-oxo-2,3-dihydrobenzoimidazole-1-sulfonyl)benzonitrile]: the Ki fell in the range of 500 to 10000 nM.
With `CCCN1CCN(C2CCN(C(=O)C(c3ccccc3)n3c(=O)n(S(=O)(=O)c4ccc(OC)cc4)c4ccc(Cl)cc43)CC2)CC1` (stereo not shown) [Example 17, 5-Chloro-1-(4-methoxybenzenesulfonyl)-3-{2-oxo-1-phenyl-2-[4-(4-propylpiperazin-1-yl)piperidin-1-yl]ethyl}-1,3-dihydrobenzimidazol-2-one], the Ki was less than 100 nM.
To `COc1ccc(S(=O)(=O)n2c(=O)n(C(C(=O)N3CCN(C4CCN(C)CC4)CC3)c3cccc(OC)c3)c3cc(Cl)ccc32)cc1` (stereo not shown) [Example 19, 5-Chloro-1-(4-methoxybenzenesulfonyl)-3-{1-(3-methoxyphenyl)-2-[4-(1-methylpiperidin-4-yl)piperazin-1-yl]-2-oxo-ethyl}-1,3-dihydrobenzimidazol-2-one] belongs 100 to 500 nM; to `COc1ccc(S(=O)(=O)n2c(=O)n(C(C(=O)N3CCN(c4ccncc4)CC3)c3cccc(OC)c3)c3cc(Cl)ccc32)cc1` (stereo not shown) [Example 20, 5-Chloro-1-(4-methoxybenzenesulfonyl)-3-[1-(3-methoxyphenyl)-2-oxo-2-(4-pyridin-4-ylpiperazin-1-yl)ethyl]-1,3-dihydrobenzimidazol-2-one], less than 100 nM.
Turning to `COc1cccc(C(C(=O)N2CCN(c3ccncc3)CC2)n2c(=O)n(S(=O)(=O)c3ccc(OC)cc3OC)c3ccc(Cl)cc32)c1` (stereo not shown) [Example 21, 5-Chloro-1-(2,4-dimethoxybenzenesulfonyl)-3-[1-(3-methoxyphenyl)-2-oxo-2-(4-pyridin-4-ylpiperazin-1-yl)-ethyl]-1,3-dihydrobenzimidazol-2-one], the Ki was 100 to 500 nM.
The result for `COc1cccc(C(C(=O)N2CCN(C3CCN(C)CC3)CC2)n2c(=O)n(S(=O)(=O)c3ccc(C#N)cc3)c3ccc(Cl)cc32)c1` (stereo not shown) [Example 22, 4-(5-Chloro-3-{1-(3-methoxyphenyl)-2-[4-(1-methylpiperidin-4-yl)piperazin-1-yl]-2-oxoethyl}-2-oxo-2,3-dihydrobenzimidazol-1-sulfonyl)benzonitrile] reads 100 to 500 nM; that for `CN1CCC(N2CCN(C(=O)C(c3ccccc3)n3c(=O)n(S(=O)(=O)c4ccc(C#N)cc4)c4ccc(C#N)cc43)CC2)CC1` (stereo not shown) [Example 23, 1-(4-Cyanobenzenesulfonyl)-3-{2-[4-(1-methylpiperidin-4-yl)piperazin-1-yl]-2-oxo-1-phenylethyl}-2-oxo-2,3-dihydro-1H-benzimidazole-5-carbonitrile], 500 to 10000 nM.
